Assay results published in patent US12391679B2, “Benzamide-substituted bicyclic imidazo- and pyrazolo-fused -pyridine, -pyrimide, and -pyridazine compounds for treatment of inflammatory diseases” (ONCO3R Therapeutics BV, priority 2019, dated 2025).
Like-named read-outs stand apart in the source and are kept apart here.

Columns and labels:
[1] = system: LPS-induced TNFα in monocytes; experiment: Monocytes assay: LPS-triggered TNFα (ELISA); type: cell-based, human; conditions: LPS-triggered TNFα inhibition
Procedure, shortened: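 CD14+ monocytes were magnetically isolated from human buffy-coat PBMCs, preincubated with compound 1 h at 37 °C (0.2% DMSO), then stimulated with LPS at 200 ng/mL for 4 h. Supernatant TNFα was measured by luminescent sandwich ELISA; percentage inhibition was calculated against controls for each concentration.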

SIK3 = biological target: T1, SIK3 (Homo sapiens, UniProt Q9Y2K2); experiment: ADP-Glo kinase assay, SIK3; type: biochemical
T1 construct: purchased SignalChem S12-11G-100
T1 sequence (Q9Y2K2 59-365 limits assumed): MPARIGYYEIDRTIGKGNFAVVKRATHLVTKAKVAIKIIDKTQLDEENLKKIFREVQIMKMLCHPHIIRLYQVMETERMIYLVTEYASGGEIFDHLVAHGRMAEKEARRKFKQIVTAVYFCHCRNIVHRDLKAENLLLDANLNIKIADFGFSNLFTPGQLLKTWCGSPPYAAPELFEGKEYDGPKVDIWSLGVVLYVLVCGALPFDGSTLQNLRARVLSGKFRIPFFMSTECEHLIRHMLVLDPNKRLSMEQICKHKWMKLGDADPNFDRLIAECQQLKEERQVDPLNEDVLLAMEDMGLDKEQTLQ
Procedure, shortened: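 Each SIK isoform is incubated with substrate and ATP for 2 h at room temperature, after which residual ATP is depleted and the ADP formed is quantified by luminescence.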

[2] = ADP-Glo, AMARA 45 μM, 5 μM ATP, 120 min, average IC50

## COc1cc(-c2cnc3cc(C4(C#N)CC4)ccn23)cc(OC(F)F)c1C(=O)NC1CC1 [Cpd 33, 4-[7-(1-cyanocyclopropyl)imidazo[1,2-a]pyridin-3-yl]-N-cyclopropyl-2-(difluoromethoxy)-6-methoxy-benzamide]
[1]; Homo sapiens, Monocyte
  EC50: 0.1 to 100 nM
SIK3
  IC50: 0.01 to 10 nM

## COc1cc(-c2cnc3cc(C(C)(C)CN4CCOCC4)ccn23)cc(OC(F)F)c1C(=O)NC1CC1 [Cpd 160, N-cyclopropyl-2-(difluoromethoxy)-4-[7-(1,1-dimethyl-2-morpholino-ethyl)imidazo[1,2-a]pyridin-3-yl]-6-methoxy-benzamide]
[1]; Homo sapiens, Monocyte
  EC50: 100 to 1000 nM
SIK3
  IC50: 10 to 100 nM

## COc1cc(-c2cnc3cc(C(C)O)ccn23)cc(OC(F)F)c1C(=O)NC1CC1 (stereo not drawn) [Cpd 140, N-cyclopropyl-2-(difluoromethoxy)-4-[7-(1-hydroxyethyl)imidazo[1,2-a]pyridin-3-yl]-6-methoxy-benzamide]
[1]; Homo sapiens, Monocyte
  EC50: 100 to 1000 nM
SIK3
  IC50: 10 to 100 nM

## COc1cc(-c2cnn3cc(C(C)(C)COS(C)(=O)=O)ccc23)cc(OC(F)F)c1C(=O)N[C@@H]1C[C@@H]1F [Cpd 267, [2-[3-[3-(difluoromethoxy)-4-[[(1R,2S)-2-fluorocyclopropyl]carbamoyl]-5-methoxy-phenyl]pyrazolo[1,5-a]pyridin-6-yl]-2-methyl-propyl]methanesulfonate]
[1]; Homo sapiens, Monocyte
  EC50: 0.1 to 100 nM
SIK3
  IC50: 0.01 to 10 nM

## COC(=O)C1(c2ccn3c(-c4cc(OC)c(C(=O)NC5CC5)c(OC(F)F)c4)cnc3c2)CC1 [Cpd 113, methyl 1-[3-[4-(cyclopropylcarbamoyl)-3-(difluoromethoxy)-5-methoxy-phenyl]imidazo[1,2-a]pyridin-7-yl]cyclopropanecarboxylate]
[1]; Homo sapiens, Monocyte
  EC50: 100 to 1000 nM
SIK3
  IC50: 0.01 to 10 nM

## COc1cc(-c2cnc3cc(C(C)(C)N)ccn23)cc(OC(F)F)c1C(=O)NC1CC1 [Cpd 106, 4-[7-(1-amino-1-methyl-ethyl)imidazo[1,2-a]pyridin-3-yl]-N-cyclopropyl-2-(difluoromethoxy)-6-methoxy-benzamide]
[1]; Homo sapiens, Monocyte
  EC50: 100 to 1000 nM
SIK3
  IC50: 0.01 to 10 nM

## COc1cc(-c2cnc3cc(C4CN(C(C)=O)C4)ccn23)cc(OC(F)F)c1C(=O)NC1CC1 [Cpd 63, 4-[7-(1-acetylazetidin-3-yl)imidazo[1,2-a]pyridin-3-yl]-N-cyclopropyl-2-(difluoromethoxy)-6-methoxy-benzamide]
[1]; Homo sapiens, Monocyte
  EC50: 100 to 1000 nM
SIK3
  IC50: 0.01 to 10 nM

## COc1cc(-c2cnc3cc([C@@](C)(O)C4CC4)ccn23)cc(OC(F)F)c1C(=O)NC1CC1 (single isomer, unassigned) [Cpd 162, N-cyclopropyl-4-[7-(1-cyclopropyl-1-hydroxy-ethyl)imidazo[1,2-a]pyridin-3-yl]-2-(difluoromethoxy)-6-methoxy-benzamide]
[1]; Homo sapiens, Monocyte
  EC50: 100 to 1000 nM
SIK3
  IC50: 10 to 100 nM

## CCOC(C)(C)c1ccn2c(-c3cc(OC)c(C(=O)NC4CC4)c(OC(F)F)c3)cnc2c1 [Cpd 128, N-cyclopropyl-2-(difluoromethoxy)-4-[7-(1-ethoxy-1-methyl-ethyl)imidazo[1,2-a]pyridin-3-yl]-6-methoxy-benzamide]
[1]; Homo sapiens, Monocyte
  EC50: 100 to 1000 nM
SIK3
  IC50: 10 to 100 nM

## CC[C@](C)(O)c1ccn2c(-c3cc(OC)c(C(=O)NC4CC4)c(OC(F)F)c3)cnc2c1 (single isomer, unassigned) [Cpd 164, N-cyclopropyl-2-(difluoromethoxy)-4-[7-(1-hydroxy-1-methyl-propyl)imidazo[1,2-a]pyridin-3-yl]-6-methoxy-benzamide]
[1]; Homo sapiens, Monocyte
  EC50: 100 to 1000 nM
SIK3
  IC50: 10 to 100 nM

## COc1cc(-c2cnc3cc(C(C)(C)C#N)ccn23)cc(OC(F)F)c1C(=O)N1CC(F)(F)C1 [Cpd 69, 2-[3-[4-(3,3-difluoroazetidine-1-carbonyl)-3-(difluoromethoxy)-5-methoxy-phenyl]imidazo[1,2-a]pyridin-7-yl]-2-methyl-propanenitrile]
[1]; Homo sapiens, Monocyte
  EC50: 100 to 1000 nM
SIK3
  IC50: 0.01 to 10 nM

## COc1cc(-c2cnc3cc([C@@](C)(O)C4CC4)ccn23)cc(OC(F)F)c1C(=O)NC1CC1 (single isomer, unassigned) [Cpd 163, N-cyclopropyl-4-[7-(1-cyclopropyl-1-hydroxy-ethyl)imidazo[1,2-a]pyridin-3-yl]-2-(difluoromethoxy)-6-methoxy-benzamide]
[1]
  EC50: 100 to 1000 nM
SIK3; [2]
  IC50: 10 to 100 nM

## CC[C@](C)(O)c1ccn2c(-c3cc(OC)c(C(=O)NC4CC4)c(OC(F)F)c3)cnc2c1 (single isomer, unassigned) [Cpd 165, N-cyclopropyl-2-(difluoromethoxy)-4-[7-(1-hydroxy-1-methyl-propyl)imidazo[1,2-a]pyridin-3-yl]-6-methoxy-benzamide]
[1]
  EC50: 100 to 1000 nM
SIK3; [2]
  IC50: 10 to 100 nM

## COc1cc(-c2cnc3cc(C(C)(C)C#N)ccn23)cc(OC(F)F)c1C(=O)N1CC(F)C1 [Cpd 96, 2-[3-[3-(difluoromethoxy)-4-(3-fluoroazetidine-1-carbonyl)-5-methoxy-phenyl]imidazo[1,2-a]pyridin-7-yl]-2-methyl-propanenitrile]
[1]; Homo sapiens, Monocyte
  EC50: 100 to 1000 nM
SIK3
  IC50: 0.01 to 10 nM

## COc1cc(-c2cnc3cc(C(C)(C)CN)ccn23)cc(OC(F)F)c1C(=O)NC1CC1 [Cpd 93, 4-[7-(2-amino-1,1-dimethyl-ethyl)imidazo[1,2-a]pyridin-3-yl]-N-cyclopropyl-2-(difluoromethoxy)-6-methoxy-benzamide]
[1]; Homo sapiens, Monocyte
  EC50: 100 to 1000 nM
SIK3
  IC50: 10 to 100 nM

## COc1cc(-c2cnc3cc(C(C)(O)C4CC4)ccn23)cc(OC(F)F)c1C(=O)NC1CC1 (stereo not drawn) [Cpd 138, N-cyclopropyl-4-[7-(1-cyclopropyl-1-hydroxy-ethyl)imidazo[1,2-a]pyridin-3-yl]-2-(difluoromethoxy)-6-methoxy-benzamide]
[1]; Homo sapiens, Monocyte
  EC50: 100 to 1000 nM
SIK3
  IC50: 10 to 100 nM

## COc1cc(-c2cnc3cc(C(C)(C)C#N)ccn23)cc(OC(F)F)c1C(=O)NCC(F)F [Cpd 70, 4-[7-(1-cyano-1-methyl-ethyl)imidazo[1,2-a]pyridin-3-yl]-N-(2,2-difluoroethyl)-2-(difluoromethoxy)-6-methoxy-benzamide]
[1]; Homo sapiens, Monocyte
  EC50: 100 to 1000 nM
SIK3
  IC50: 0.01 to 10 nM

## COc1cc(-c2cnn3cc(C4CCOCC4)cnc23)cc(OC(F)F)c1C(=O)NC1CC1 [Cpd 95, N-cyclopropyl-2-(difluoromethoxy)-6-methoxy-4-(6-tetrahydropyran-4-ylpyrazolo[1,5-a]pyrimidin-3-yl)benzamide]
[1]; Homo sapiens, Monocyte
  EC50: 100 to 1000 nM
SIK3
  IC50: 0.01 to 10 nM

## COc1cc(-c2cnc3cc(C4COCCN4C)ccn23)cc(OC(F)F)c1C(=O)NC1CC1 (stereo not drawn) [Cpd 193, N-cyclopropyl-2-(difluoromethoxy)-6-methoxy-4-[7-(4-methylmorpholin-3-yl)imidazo[1,2-a]pyridin-3-yl]benzamide]
[1]; Homo sapiens, Monocyte
  EC50: 100 to 1000 nM
SIK3
  IC50: 10 to 100 nM

## COc1cc(-c2cnn3cc(C4(C#N)CC4)ccc23)cc(OC(F)F)c1C(=O)N[C@@H]1C[C@@H]1F [Cpd 235, 4-[6-(1-cyanocyclopropyl)pyrazolo[1,5-a]pyridin-3-yl]-2-(difluoromethoxy)-N-[(1R,2S)-2-fluorocyclopropyl]-6-methoxy-benzamide]
[1]; Homo sapiens, Monocyte
  EC50: 0.1 to 100 nM
SIK3
  IC50: 0.01 to 10 nM

## COc1cc(-c2cnc3cc(C4CCOCC4)c(F)cn23)cc(OC(F)F)c1C(=O)NC1CC1 [Cpd 166, N-cyclopropyl-2-(difluoromethoxy)-4-(6-fluoro-7-tetrahydropyran-4-yl-imidazo[1,2-a]pyridin-3-yl)-6-methoxy-benzamide]
[1]; Homo sapiens, Monocyte
  EC50: 100 to 1000 nM
SIK3
  IC50: 0.01 to 10 nM

## COc1cc(-c2cnc3cc(C(C)N4CCCCC4)ccn23)cc(OC(F)F)c1C(=O)NC1CC1 (stereo not drawn) [Cpd 146, N-cyclopropyl-2-(difluoromethoxy)-6-methoxy-4-[7-[1-(1-piperidyl)ethyl]imidazo[1,2-a]pyridin-3-yl]benzamide]
[1]; Homo sapiens, Monocyte
  EC50: 1000 to 5000 nM
SIK3
  IC50: 10 to 100 nM

## COc1cc(-c2cnc3cc(C(C)(C)C#N)ccn23)cc(OC)c1C(=O)NC1CC1 [Cpd 28, 4-[7-(1-cyano-1-methyl-ethyl)imidazo[1,2-a]pyridin-3-yl]-N-cyclopropyl-2,6-dimethoxy-benzamide]
[1]; Homo sapiens, Monocyte
  EC50: 100 to 1000 nM
SIK3
  IC50: 10 to 100 nM

## COc1cc(-c2cnc3cc(C4CCCN(C(=O)OC(C)(C)C)C4)ccn23)cc(OC(F)F)c1C(=O)NC1CC1 (stereo not drawn) [Cpd 64, tert-butyl 3-[3-[4-(cyclopropylcarbamoyl)-3-(difluoromethoxy)-5-methoxy-phenyl]imidazo[1,2-a]pyridin-7-yl]piperidine-1-carboxylate]
[1]; Homo sapiens, Monocyte
  EC50: 100 to 1000 nM
SIK3
  IC50: 0.01 to 10 nM
